# Values joined by “and” are separate entries in the source; they are usually repeats but may differ in a detail not shown here. Equal values may be shown once. Read-outs that look alike come from different tables or passages of the source.
# Legend:
# [1] = 3-day MTD2 rat study; type: in vivo, Wistar Han rats; details: 300, 600, 1000 mg/kg/day, three days
# Text: See the summary of the study design in Supplementary Table 31. Nine-week-old Wistar (Crl:WI (Han)) rats were obtained from Charles River Laboratories (Domaine des Oncins, Saint-Germain-Nuelles, France). […] Animals were examined daily for any altered clinical signs, body weights, and food consumption. Blood samples were taken at different timepoints after the test item administration, and toxicokinetic exposure assessed under the defined experimental conditions and analyzed using Phoenix (version 6.4 and 1.4) (Supplementary Table 32). Measurements included hematology and clinical chemistry measurements. Animals were euthanized and necropsied at the end of the dosing period. At necropsy, major organ systems and tissues were collected and weighed and then examined for gross lesions as well as for microscopic changes.
# [2] = test system: P. falciparum Pf3D7^0087/N9 and Pf3D7^20161128TAD17N214; test: PKPD efficacy studies in humanized NSG mice and PD model; type: in vivo, Plasmodium falciparum
# Experimental: The experimental designs are summarized in Supplementary Table 30. […] Samples were processed under liquid-liquid extraction methods and analyzed by LC-MS/MS for quantitation in a Waters UPLC-TQD (Micromass, Manchester, UK).
# Data preparation, exploration and model pre- and postprocessing were performed using R (version 3.6.3) and R package IQRtools (version 1.2.1 IntiQuan GmbH). Non-linear mixed-effects (NLME) modeling was used to estimate the PK and PD parameters using Monolix (Lixoft version MLX2018R2). The population PKPD model was developed with a two-stage approach: first, a population PK model was determined; then, the individual PK parameters were used as regression parameters and the PD parameters were estimated. The PD model consists of the balance between a parasite net growth rate and a drug killing rate. […] The growth rate of log-transformed parasite concentration was fixed at 0.03 /h based on prior experiments but estimating growth rate interindividual variability. Different Hill coefficients were tested.
# [3] = test system: P. falciparum NF54 sporozoites / liver stages; test: Liver-stage development in human primary hepatocytes; type: cell-based, Plasmodium falciparum; parameters: infected hepatocytes (Rep1, Rep2): unit not given here
# Experimental: To assess parasite development in hepatocytes, cryopreserved human primary hepatocytes (Tebu-Bio lot: HC10-10) were thawed according to the manufacturer’s protocol and seeded (50,000 cells per well) in collagen-coated 96-well plates (Greiner). Cells were cultured at 37 °C in 5% CO2 and the medium was refreshed after 3 h and 24 h. Salivary glands from Anopheles stephensi mosquitoes were dissected to obtain NF54 sporozoites that were added (60,000 per well) to hepatocytes 48 h post-thawing. Plates were spun down and sporozoites were incubated with hepatocytes for 3 h. Subsequently, sporozoites were aspirated and compounds diluted in hepatocyte medium, were added to the hepatocytes (0.1% DMSO final concentration). Medium-containing compounds was refreshed daily for four days. Hepatocytes were fixed with ice-cold methanol and samples were blocked with 10% fetal bovine serum (FBS) in PBS. Samples were incubated with rabbit anti-HSP70 (1:75, StressMarq) in 10% FBS for 1-2 h followed by incubation with secondary goat anti-rabbit AlexaFluor 594 antibody (1:1000, Invitrogen) in 10% FBS for 30 min. Samples were washed with PBS containing 0.05% Tween 20 between different steps. Cells were imaged on the Biotek Cytation and images were analyzed automatically using FIJI software.
# [4] = test system: P. falciparum Dd2-B2; test: 72-h flow cytometry IC50 assay, Dd2-B2 and resistant Dd2-B2; type: cell-based, Plasmodium falciparum
# Experimental: (§1) Replication assays were performed using a SYBR Green method as described previously. Briefly, asynchronous parasites were diluted to 0.83% parasitemia, 3% hematocrit in 30 µl medium, and added to 30 µl of diluted compounds in medium (0.1% DMSO final concentration) in black 384-wells plates. After a 72-h incubation, 30 µl of SYBR Green diluted in lysis buffer was added according to the manufacturer’s protocol (Life Technologies). Fluorescence intensity was measured on a BioTek Synergy 2 Plate Reader after 1-h incubation and was normalized to a DMSO control (100% growth) and DHA- or epoxomicin-treatment (no growth). […] Parasite survival was assessed by flow cytometry on an Accuri C6 (BD Biosciences) with BD C6 Plus software using SYBR Green and MitoTracker Deep Red FM (Life Technologies) as nuclear stain and vital dye, respectively, and data were analyzed using FlowJo (10.5.0). […] Luminescence was measured after 72 h using the Renilla-Glo(R) Luciferase Assay System (Promega E2750) and the GlomAX® Discover Multimode Microplate Reader (Promega). The luminescence values were normalized to DMSO vehicle (100% growth) and 200 nM chloroquine-treated (no growth) samples as controls.
# [5] = test system: control-cKD P. falciparum; test: Drug sensitivity of control conditional knockdown parasites; type: cell-based, Plasmodium falciparum; details: 0 nM vs 500 nM aTc
# Experimental: as §1
# [6] = test system: P. falciparum NF54 female gametocytes; test: Dual gamete formation assay, female; type: cell-based, Plasmodium falciparum; details: read-out: IC50 female gametocyte activation
# Experimental: After a 48-h incubation, gamete formation was stimulated by a drop in temperature (from 37 °C to 26 °C), and the addition of xanthurenic acid (2.5 µM). At 20 min after induction, exflagellation was recorded by automated time-lapse microscopy. After data collection, the plate was returned to a 26 °C incubator and incubated for 24 h. Female gamete formation was assessed by live staining with a Cy3-labelled anti-Pfs25 monoclonal antibody (1:2222) and recorded by automated microscopy.
compound,measurement,setting,value
C[C@@H](CNC(=O)[C@H](O)C(C)(C)CO)NC(=O)c1cc(F)c(F)cc1F [MMV693183],toxicity,[1],no relevant toxicity was observed
same,"EC50, concentration achieving 50percent of maximum effect",[2]; PD model estimate,11.5 ng/mL
same,MIC,[2]; PKPD model,3.2 ng/mL
same,MPC90,[2]; PKPD model,38.4 ng/mL
same,ED90,[2]; in vivo,4.4 mg/kg
same,time at which 3D7 parasites were cleared,[2]; single-dose groups,4 to 6 days
same,efficacy against liver stages,[3],not efficacious against liver stages
same,"infected hepatocytes (Rep1, Rep2)",[3]; log concentration (M) -5,0.0299 and 0.0223
same,"infected hepatocytes (Rep1, Rep2)",[3]; log concentration (M) -5.5,0.0585 and 0.0696
same,"infected hepatocytes (Rep1, Rep2)",[3]; log concentration (M) -7,0.3352 and 0.4993
same,"infected hepatocytes (Rep1, Rep2)",[3]; log concentration (M) -7.5,0.3658 and 0.5068
same,IC50 shift,[4]; 1x10^9 Dd2-B2 selected at 12-27 nM,13 x
same,"Parasite growth, dose-response (No drug = 100)","[4]; Dd2-B2, Log concentration (M) -8.61866",46.9671 and 65.9341 and 69.186 and 60.7743
same,"Parasite growth, dose-response (No drug = 100)","[4]; Dd2-B2, Log concentration (M) -8.91969",65.3709 and 69.9634 and 65.2132 and 74.7261
same,"Parasite growth, dose-response (No drug = 100)","[4]; Dd2-B2, Log concentration (M) -9.22072",72.0216 and 80.9524 and 81.3953 and 76.7714
same,"Parasite growth, dose-response (No drug = 100)","[4]; Dd2-B2, Log concentration (M) -9.52175",91.6867 and 88.6447 and 91.0853 and 95.8364
same,"Parasite growth, dose-response (No drug = 100)","[4]; Dd2-B2, Log concentration (M) -9.82278",93.0054 and 90.8425 and 98.7403 and 95.3251
same,IC50,"[4]; Dd2-B2, read-out: IC50",1.79 nM and 2.73 nM and 3.55 nM and 3.05 nM
same,IC50,"[4]; Dd2-B2, read-out: mean IC50",3 nM
same,"Parasite growth, dose-response (No drug = 100)","[4]; FL1, Log concentration (M) -7.11351",0
same,"Parasite growth, dose-response (No drug = 100)","[4]; FL1, Log concentration (M) -7.41454",70.2458 and 55.9122
same,"Parasite growth, dose-response (No drug = 100)","[4]; FL1, Log concentration (M) -7.71557",80.5951 and 111.824
same,"Parasite growth, dose-response (No drug = 100)","[4]; FL1, Log concentration (M) -8.0166",100 and 101.689
same,"Parasite growth, dose-response (No drug = 100)","[4]; FL1, Log concentration (M) -8.31763",93.5317 and 96.6216
same,"Parasite growth, dose-response (No drug = 100)","[4]; FL1, Log concentration (M) -8.61866",96.119 and 101.689
same,"Parasite growth, dose-response (No drug = 100)","[4]; FL1, Log concentration (M) -8.91969",78.0078 and 118.581
same,"Parasite growth, dose-response (No drug = 100)","[4]; FL1, Log concentration (M) -9.22072",94.8254 and 105.068
same,"Parasite growth, dose-response (No drug = 100)","[4]; FL1, Log concentration (M) -9.52175",101.294 and 83.1081
same,"Parasite growth, dose-response (No drug = 100)","[4]; FL1, Log concentration (M) -9.82278",85.7697 and 115.203
same,IC50,"[4]; FL1, read-out: IC50",44.2 nM and 38.8 nM
same,"Parasite growth, dose-response (No drug = 100)","[4]; FL2, Log concentration (M) -7.11351",0
same,"Parasite growth, dose-response (No drug = 100)","[4]; FL2, Log concentration (M) -7.41454",60.4288 and 62.4542
same,"Parasite growth, dose-response (No drug = 100)","[4]; FL2, Log concentration (M) -7.71557",82.846 and 84.7985
same,"Parasite growth, dose-response (No drug = 100)","[4]; FL2, Log concentration (M) -8.0166",96.8811 and 77.6557
same,"Parasite growth, dose-response (No drug = 100)","[4]; FL2, Log concentration (M) -8.31763",88.499 and 88.6447
same,"Parasite growth, dose-response (No drug = 100)","[4]; FL2, Log concentration (M) -8.61866",105.458 and 84.9817
same,"Parasite growth, dose-response (No drug = 100)","[4]; FL2, Log concentration (M) -8.91969",80.5068 and 77.1062
same,"Parasite growth, dose-response (No drug = 100)","[4]; FL2, Log concentration (M) -9.22072",101.365 and 80.4029
same,"Parasite growth, dose-response (No drug = 100)","[4]; FL2, Log concentration (M) -9.52175",71.345 and 104.029
same,"Parasite growth, dose-response (No drug = 100)","[4]; FL2, Log concentration (M) -9.82278",92.0078 and 88.4615
same,IC50,"[4]; FL2, read-out: IC50",40.7 nM and 41.7 nM
same,"Parasite growth, dose-response (No drug = 100)","[4]; FL3, Log concentration (M) -7.11351",0
same,"Parasite growth, dose-response (No drug = 100)","[4]; FL3, Log concentration (M) -7.41454",54.4365 and 48.2063
same,"Parasite growth, dose-response (No drug = 100)","[4]; FL3, Log concentration (M) -7.71557",83.9329 and 95.9641
same,"Parasite growth, dose-response (No drug = 100)","[4]; FL3, Log concentration (M) -8.0166",96.6427 and 92.1525
same,"Parasite growth, dose-response (No drug = 100)","[4]; FL3, Log concentration (M) -8.31763",96.6427 and 93.0493
same,"Parasite growth, dose-response (No drug = 100)","[4]; FL3, Log concentration (M) -8.61866",96.1631 and 96.6368
same,"Parasite growth, dose-response (No drug = 100)","[4]; FL3, Log concentration (M) -8.91969",103.118 and 89.9103
same,"Parasite growth, dose-response (No drug = 100)","[4]; FL3, Log concentration (M) -9.22072",91.1271 and 102.466
same,"Parasite growth, dose-response (No drug = 100)","[4]; FL3, Log concentration (M) -9.52175",106.954 and 82.7354
same,"Parasite growth, dose-response (No drug = 100)","[4]; FL3, Log concentration (M) -9.82278",109.113 and 91.4798
same,IC50,"[4]; FL3, read-out: IC50",38.2 nM and 37.9 nM
same,IC50 change upon knockdown,[5],no difference in sensitivity
same,IC50,[6],12 nM

# — article PMC9021288 (Nature Communications, 2022)
